Laboratory results from patent publication US8192962B2, “Processes for detecting toxic substances” (Daikin Industries, Ltd., priority 2001, dated 2012).

Test system: Energy system protein genes
Test: DNA chip mRNA expression in yeast, energy system protein genes (Table 4)
Assay type: cell-based, Saccharomyces cerevisiae S288C
Outline: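 Chemical exposure: 2 h, log-phase S. cerevisiae S288C, YPD, 25° C., dose set to inhibit growth without death. Profiling: mRNA labeled by reverse transcription with Cy3- or Cy5-dUTP, hybridized to whole-genome array. Output: fluorescence ratio against untreated culture.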

Measured: The level of expressed mRNA in the presence of chemical substance/The level of expressed mRNA in the absence of chemical substance

CCCCC[C@H](O)CC(=O)CCc1ccc(O)c(OC)c1 [(13), gingerol]
2.9: yeast gene YPL240C
2.5: yeast gene YFR015C | yeast gene YNL071W
0.6: yeast gene YDL067C, cells incubated two hours with the chemical substance | yeast gene YEL024W, cells incubated two hours with the chemical substance | yeast gene YPR048W, cells incubated two hours with the chemical substance
2.8: yeast gene YDR001C | yeast gene YML054C
5.9: yeast gene YDL174C
0.4: yeast gene YDR380W | yeast gene YJR048W
3.2: yeast gene YNL237W
2.0: yeast gene YBR145W | yeast gene YIL045W | yeast gene YIL172C | yeast gene YKL035W
3.1: yeast gene YGR254W | yeast gene YNL331C
2.3: yeast gene YIL160C | yeast gene YMR089C | yeast gene YPR026W
1.2: yeast gene YDL107W, cells incubated two hours with the chemical substance | yeast gene YDR298C, cells incubated two hours with the chemical substance | yeast gene YEL020C | yeast gene YKL060C, cells incubated two hours with the chemical substance | yeast gene YML120C, cells incubated two hours with the chemical substance | yeast gene YMR073C, cells incubated two hours with the chemical substance | yeast gene YPL271W
1.6: yeast gene YBL058W, cells incubated two hours with the chemical substance | yeast gene YEL047C, cells incubated two hours with the chemical substance | yeast gene YEL071W, cells incubated two hours with the chemical substance | yeast gene YJL045W, cells incubated two hours with the chemical substance | yeast gene YMR261C, cells incubated two hours with the chemical substance | yeast gene YPL031C, cells incubated two hours with the chemical substance
3.0: yeast gene YFR053C
1.9: yeast gene YNL037C
1.0: yeast gene YBR185C, cells incubated two hours with the chemical substance | yeast gene YDL078C, cells incubated two hours with the chemical substance | yeast gene YGL205W, cells incubated two hours with the chemical substance | yeast gene YGR207C | yeast gene YIR031C, cells incubated two hours with the chemical substance | yeast gene YJR121W, cells incubated two hours with the chemical substance | yeast gene YLL041C, cells incubated two hours with the chemical substance | yeast gene YLR164W, cells incubated two hours with the chemical substance | yeast gene YLR354C, cells incubated two hours with the chemical substance | yeast gene YML129C, cells incubated two hours with the chemical substance | yeast gene YOR178C, cells incubated two hours with the chemical substance | yeast gene YOR221C | yeast gene YPL275W, cells incubated two hours with the chemical substance
1.8: yeast gene YAL038W | yeast gene YAL054C | yeast gene YHL008C | yeast gene YKL150W | yeast gene YOR347C | yeast gene YPR006C
3.3: yeast gene YMR105C
2.4: yeast gene YDR231C | yeast gene YER178W | yeast gene YPL171C
3.4: yeast gene YGR008C | yeast gene YGR192C
1.1: yeast gene YGL191W, cells incubated two hours with the chemical substance | yeast gene YGR112W, cells incubated two hours with the chemical substance | yeast gene YJL216C, cells incubated two hours with the chemical substance | yeast gene YOR388C, cells incubated two hours with the chemical substance | yeast gene YPL061W, cells incubated two hours with the chemical substance
1.5: yeast gene YCR046C, cells incubated two hours with the chemical substance | yeast gene YEL011W | yeast gene YGL253W | yeast gene YGR062C, cells incubated two hours with the chemical substance, 25° C., YPD medium | yeast gene YKL085W, cells incubated two hours with the chemical substance | yeast gene YML087C | yeast gene YOR136W
3.8: yeast gene YML100W
2.1: yeast gene YBR126C
1.4: yeast gene YBR196C | yeast gene YOL157C
2.2: yeast gene YAL060W | yeast gene YML125C
1.7: yeast gene YIL111W | yeast gene YLR273C
4.0: yeast gene YCR107W
3.7: yeast gene YOL165C
2.6: yeast gene YGR244C | yeast gene YHR179W | yeast gene YOL126C
1.3: yeast gene YMR205C, cells incubated two hours with the chemical substance
0.7: yeast gene YBR299W | yeast gene YCR005C | yeast gene YDR377W, cells incubated two hours with the chemical substance | yeast gene YDR529C, cells incubated two hours with the chemical substance | yeast gene YGL134W | yeast gene YGL187C, cells incubated two hours with the chemical substance | yeast gene YJL121C, cells incubated two hours with the chemical substance | yeast gene YKR058W, cells incubated two hours with the chemical substance, 25° C., YPD medium | yeast gene YMR267W, cells incubated two hours with the chemical substance, 25° C., YPD medium
